From article doi:10.1101/2024.12.16.628070v1 (bioRxiv, 2024)
≈ marks a conversion by molar mass, not a printed value. Where two headings read alike, the source gives them in different places. Blank lines part the entries; values can stand above or below the molecule they belong to. Where no end group is shown, it is not given here.

Experiments:
[1] = test system: Klebsiella pneumoniae; experiment: MIC, broth microdilution; assay type: cell-based
[2] = molecular target: BamA-β (transmembrane β-barrel domain of BamA) (Escherichia coli, UniProt P0A940, C690S/C700S); experiment: Surface Plasmon Resonance affinity to BamA-β in LDAO micelles; assay type: binding
[3] = test system: Bacillus subtilis; experiment: MIC, broth microdilution; assay type: cell-based; conditions: strain ATCC 6633
[4] = molecular target: BAM complex (Escherichia coli, UniProt P0A940); experiment: Differential Scanning Fluorimetry of BAM complex in nanodiscs; assay type: binding; conditions: read-out: increase in melting temperature (Tm)
[5] = test system: Salmonella typhimurium; experiment: MIC, broth microdilution; assay type: cell-based; conditions: strain ATCC 14028
[6] = test system: Escherichia coli; assay type: cell-based
[7] = test system: Enterobacter cloacae; experiment: MIC, broth microdilution; assay type: cell-based
[8] = test system: Shigella flexneri; experiment: MIC, broth microdilution; assay type: cell-based; conditions: strain M90T
[9] = test system: Bacillus cereus; experiment: MIC, broth microdilution; assay type: cell-based; conditions: strain ATCC 11778
[10] = test system: Staphylococcus aureus; experiment: MIC, broth microdilution; assay type: cell-based
[11] = test system: E. coli M6; assay type: cell-based, Escherichia coli
[12] = test system: Pseudomonas aeruginosa; experiment: MIC, broth microdilution; assay type: cell-based
[13] = Single-dose pharmacokinetic study; assay type: in vivo; conditions: mouse, blood, ip, 50 mg/kg
[14] = test system: Acinetobacter baumannii; experiment: MIC, broth microdilution; assay type: cell-based
[15] = test system: Morganella morganii; experiment: MIC, broth microdilution; assay type: cell-based
[16] = test system: Salmonella entereditis; experiment: MIC, broth microdilution; assay type: cell-based; conditions: strain ATCC 13076
[17] = test system: Enterococcus faecalis; experiment: MIC, broth microdilution; assay type: cell-based; conditions: strain ATCC 29212
[18] = K12 MG1655 BamA F394V, E435K, G443D
[19] = strain ATCC 25922 (WT), broth microdilution, MHB, 18-20 h, 37 °C

Molecule: CC(C)[C@@H]1NC(=O)[C@@H](N)Cc2c[nH]c3cc(ccc23)C(C(N)=O)[C@@H](C(=O)N[C@@H](C)C(=O)N[C@H]2Cc3cccc(c3)C(CCNC(=N)N)[C@@H](C(=O)N[C@H]3Cc4c[nH]c5cc(ccc45)C(CCCN)[C@@H](C(=O)N[C@@H](CO)C(=O)N[C@@H](Cc4ccccc4)C(=O)O)NC(=O)[C@H](CO)NC3=O)NC(=O)[C@H](C)NC2=O)NC1=O (stereo partly shown) [Compound 2, xenorceptide A2]
- MIC ([1]; strain ATCC 700603): 8 µg/mL (≈ 5.36 µM)
- MIC ([1]; strain CRE1007): 8 µg/mL (≈ 5.36 µM)
- MIC ([1]; strain CRE1008): 8 µg/mL (≈ 5.36 µM)
- MIC ([1]; strain CRE1011): 8 µg/mL (≈ 5.36 µM)
- MIC ([1]; strain CRE1012): 8 µg/mL (≈ 5.36 µM)
- MIC ([1]; strain M7): 64 µg/mL (≈ 42.9 µM)
- Kd ([2]; KD, steady state response, SPR, BamA-β, concentration range 0.019 µM to 20 µM): ~800 nM
- koff ([2]; read-out: kd (dissociation rate)): 0.0673 s⁻¹
- MIC [3]: >64 µg/mL
- ΔTm at 20 µM [4]: 3.8 °C
- MIC [5]: 8 µg/mL (≈ 5.36 µM)
- MIC [6, 18]: 8 µg/mL (≈ 5.36 µM)
- MIC ([6]; K12 MG1655 BamA G429V, G807V): 8 µg/mL (≈ 5.36 µM)
- MIC ([6]; MG1655 bamA G429C, generated in the present study): 32 µg/mL (≈ 21.4 µM)
- MIC ([6]; strain 1 (darobactin-resistant MG1655 strain previously reported)): 8 µg/mL (≈ 5.36 µM)
- MIC ([6]; strain 2 (darobactin-resistant MG1655 strain previously reported)): 8 µg/mL (≈ 5.36 µM)
- MIC [6, 19]: 2 µg/mL (≈ 1.34 µM)
- MIC ([6]; strain CRE1006, broth microdilution, MHB, 18-20 h, 37 °C): 4 µg/mL (≈ 2.68 µM)
- MIC ([6]; strain K12 MG1655 (WT)): 2 µg/mL (≈ 1.34 µM)
- MIC ([6]; strain M2, broth microdilution, MHB, 18-20 h, 37 °C, repeated three times): 16 µg/mL (≈ 10.7 µM)
- MIC ([6]; strain M6, broth microdilution, MHB, 18-20 h, 37 °C): 8 µg/mL (≈ 5.36 µM)
- MIC ([6]; strain M10, broth microdilution, MHB, 18-20 h, 37 °C): 4 µg/mL (≈ 2.68 µM)
- MIC ([6]; strain M11, broth microdilution, MHB, 18-20 h, 37 °C): 4 µg/mL (≈ 2.68 µM)
- MIC ([7]; strain CRE1010): 4 µg/mL (≈ 2.68 µM)
- MIC ([7]; strain CRE1014): 16 µg/mL (≈ 10.7 µM)
- MIC ([7]; strain CRE1015): 32 µg/mL (≈ 21.4 µM)
- MIC ([7]; strain CRE1016): 16 µg/mL (≈ 10.7 µM)
- MIC ([7]; strain CRE1017): 32 µg/mL (≈ 21.4 µM)
- MIC [8]: 2 µg/mL (≈ 1.34 µM)
- MIC [9]: >64 µg/mL
- MIC ([10]; strain ATCC 29737): >64 µg/mL
- MIC ([10]; strain ATCC 43300): >64 µg/mL
- MIC after resistance development in serial passage ([11]; after 5-7 days of passage): 32 µg/mL (≈ 21.4 µM)
- MIC ([12]; strain ATCC 9027): 64 µg/mL (≈ 42.9 µM)
- MIC ([12]; strain DM4150R): 64 µg/mL (≈ 42.9 µM)
- MIC ([12]; strain DM23376): >64 µg/mL
- MIC ([12]; strain DR4877/07): 64 µg/mL (≈ 42.9 µM)
- MIC ([12]; strain DR5790/07): 64 µg/mL (≈ 42.9 µM)
- Tmax [13]: 2 h
- Cmax ([13]; SD): 60.7 µg/mL
- half-life ([13]; SD): 2.4 h
- MIC ([14]; strain ACBA1001): 32 µg/mL (≈ 21.4 µM)
- MIC ([14]; strain ACBA1002): 32 µg/mL (≈ 21.4 µM)
- MIC ([14]; strain ACBA1003): 32 µg/mL (≈ 21.4 µM)
- MIC ([14]; strain ACBA1004): 64 µg/mL (≈ 42.9 µM)
- MIC ([14]; strain ATCC 19606): >64 µg/mL
- MIC ([15]; strain ATCC 25830): 32 µg/mL (≈ 21.4 µM)
- MIC ([15]; strain CRE1001): 32 µg/mL (≈ 21.4 µM)
- MIC [16]: 8 µg/mL (≈ 5.36 µM)

- MIC ([1]; strain ATCC 700603): 8 µg/mL
- MIC [3]: >64 µg/mL
- MIC [6, 19]: 8 µg/mL
- MIC ([10]; strain ATCC 29737): >64 µg/mL
- MIC ([12]; strain ATCC 9027): 64 µg/mL
- MIC ([14]; strain ATCC 19606): >64 µg/mL
- MIC ([15]; strain ATCC 25830): 64 µg/mL
Molecule: WINAFANWTKRI (also: bicyclic or more (positions not given here)) [Compound 3, xenorceptide A3]

Molecule: WINAFGNWTKSF (also: bicyclic or more (positions not given here)) [Compound 16, xenorceptide A16]
- MIC ([1]; strain ATCC 700603): >64 µg/mL
- MIC [6, 19]: >64 µg/mL
- MIC ([7]; strain ATCC 13047): >64 µg/mL
- MIC ([10]; strain ATCC 29737): >64 µg/mL
- MIC ([14]; strain ATCC 19606): >64 µg/mL
- MIC [17]: >64 µg/mL

- MIC ([1]; strain ATCC 700603): 8 µg/mL
- MIC [6, 19]: 4 µg/mL
- MIC ([7]; strain ATCC 13047): 8 µg/mL
- MIC ([10]; strain ATCC 29737): >64 µg/mL
- MIC ([14]; strain ATCC 19606): >64 µg/mL
- MIC [17]: >64 µg/mL
Molecule: WVNAFAKWTKRI (also: bicyclic or more (positions not given here)) [Compound 11, xenorceptide A11]

Molecule: WVNAFANWPKRF (also: bicyclic or more (positions not given here)) [Compound 13, xenorceptide A13]
- MIC ([1]; strain ATCC 700603): 32 µg/mL
- MIC [6, 19]: 8 µg/mL
- MIC ([7]; strain ATCC 13047): >64 µg/mL
- MIC ([10]; strain ATCC 29737): >64 µg/mL
- MIC ([14]; strain ATCC 19606): >64 µg/mL
- MIC [17]: >64 µg/mL

Molecule: WVNAFANWSKAL (also: bicyclic or more (positions not given here)) [Compound 15, xenorceptide A15]
- MIC ([1]; strain ATCC 700603): >64 µg/mL
- MIC [6, 19]: 64 µg/mL
- MIC ([7]; strain ATCC 13047): >64 µg/mL
- MIC ([10]; strain ATCC 29737): >64 µg/mL
- MIC ([14]; strain ATCC 19606): >64 µg/mL
- MIC [17]: >64 µg/mL

Molecule: WVNAFANWSKSF (also: bicyclic or more (positions not given here)) [Compound 6, xenorceptide A6]
- MIC ([1]; strain ATCC 700603): >64 µg/mL
- MIC [6, 19]: 64 µg/mL
- MIC ([10]; strain ATCC 29737): >64 µg/mL
- MIC ([12]; strain ATCC 9027): >64 µg/mL
- MIC ([14]; strain ATCC 19606): >64 µg/mL

- MIC ([1]; strain ATCC 700603): 4 µg/mL
- MIC [6, 19]: 2 µg/mL
- MIC ([10]; strain ATCC 29737): >64 µg/mL
- MIC ([12]; strain ATCC 9027): 64 µg/mL
- MIC ([14]; strain ATCC 19606): >64 µg/mL
Molecule: WVNAFANWTKRF (also: bicyclic or more (positions not given here)) [Compound 8, xenorceptide A8]

Molecule: WVNAFARWDKKF (also: bicyclic or more (positions not given here)) [Compound 7, xenorceptide A7]
- MIC ([1]; strain ATCC 700603): >64 µg/mL
- MIC [6, 19]: 64 µg/mL
- MIC ([10]; strain ATCC 29737): >64 µg/mL
- MIC ([12]; strain ATCC 9027): >64 µg/mL
- MIC ([14]; strain ATCC 19606): >64 µg/mL

Molecule: WVNAFGNWSKSL (also: bicyclic or more (positions not given here)) [Compound 14, xenorceptide A14]
- MIC ([1]; strain ATCC 700603): >64 µg/mL
- MIC [6, 19]: 64 µg/mL
- MIC ([7]; strain ATCC 13047): 64 µg/mL
- MIC ([10]; strain ATCC 29737): >64 µg/mL
- MIC ([14]; strain ATCC 19606): >64 µg/mL
- MIC [17]: >64 µg/mL

Molecule: WVNAFVNWPKSF (also: bicyclic or more (positions not given here)) [Compound 5, xenorceptide A5]
- MIC ([1]; strain ATCC 700603): 32 µg/mL
- MIC [6, 19]: 16 µg/mL
- MIC ([10]; strain ATCC 29737): >64 µg/mL
- MIC ([12]; strain ATCC 9027): >64 µg/mL
- MIC ([14]; strain ATCC 19606): >64 µg/mL

Molecule: WVNAYARWTKRF (also: bicyclic or more (positions not given here)) [Compound 12, xenorceptide A12]
- MIC ([1]; strain ATCC 700603): 16 µg/mL
- MIC [6, 19]: 4 µg/mL
- MIC ([7]; strain ATCC 13047): >64 µg/mL
- MIC ([10]; strain ATCC 29737): >64 µg/mL
- MIC ([14]; strain ATCC 19606): >64 µg/mL
- MIC [17]: >64 µg/mL

- MIC ([1]; strain ATCC 700603): 16 µg/mL
- MIC [3]: >64 µg/mL
- MIC [6, 19]: 8 µg/mL
- MIC ([10]; strain ATCC 29737): >64 µg/mL
- MIC ([12]; strain ATCC 9027): >64 µg/mL
- MIC ([14]; strain ATCC 19606): >64 µg/mL
- MIC ([15]; strain ATCC 25830): 64 µg/mL
Molecule: WVNAYARWTNRF (also: bicyclic or more (positions not given here)) [Compound 4, xenorceptide A4]

Molecule: colistin [reference compound]
- time to development of resistance in serial passage ([11]; sub-inhibitory concentrations, MHB): 3 days

Molecule: dynobactin A [reference compound]
- MIC [6, 18]: 16 µg/mL
- MIC ([6]; K12 MG1655 BamA G429V, G807V): > 128 µg/mL
- MIC [6, 19]: 8 µg/mL
- MIC ([6]; strain K12 MG1655 (WT)): 16 µg/mL
